# Reference: patent US4587233A, “Use of Arg-Phe-amide derivatives” (Board of Trustees of the Leland Stanford Junior University, priority 1983, dated 1986)
# Structures can show the parent of a compound that is named as a salt.
# How the values were obtained:
# [1] = test system: Blood Pressure of Anesthetized Rats; experiment: Blood pressure bioassay in urethane-anesthetized rats, peptides injected intravenously; assay type: in vivo, male Sprague-Dawley rats; parameters: key to Duration of blood pressure effect: +: short-lasting blood pressure elevation at all doses; ++: short-lasting blood pressure elevation at low doses; +++: long-lasting elevation at low doses; conditions: i.v.; for Maximal increase in blood pressure mm Hg diastolic / Maximal increase in blood pressure mm Hg systolic: over the dose-range tested (nmol/kg)
# Protocol: Bioassays were conducted on male Sprague-Dawley rats, weighing 250-450 g, and anesthetized by an intraperitoneal injection of a 25 percent urethane solution (1.25 g/kg). The left femoral artery was cannulated with PE 50 polyethylene tubing for monitoring of blood pressure with a pressure transducer RP-1500 (Narco Biosystems). Injections of peptides or drugs were made via a PE 10 tubing into the left femoral vein. Respiration was measured by an impedance method by which the respiratory movements of the chest are registered. The method gives indirect information on respiration amplitude. Heart and respiration frequency were obtained by using biotachometer couplers which measure mean frequencies. Body temperature was measured in the rectum with a thermistor (Yellow Springs Instruments) and maintained between 36.5° and 37.5° C. Peptides or drugs were dissolved in sterile H2 O and the volumes injected intravenously were usually 0.1 ml and never exceeded 0.2 ml.
# [2] = test system: pressor activity of FMRF-NH2 in urethane-anesthetized rats; experiment: Pressor activity of FMRF-NH2 after pretreatment with vasodepressor drugs and pharmacologic antagonists; assay type: in vivo; conditions: for Effect of drug pretreatment on pressor activity of FMRF-NH2: FMRF-NH2 challenge 16, 128, 512 nmol/kg i.v. 5-10 minutes after drug pretreatment; for Attenuation of the FMRFamide pressor effect: FMRF-NH2 challenge 16, 128, 512 nmol/kg i.v. after pretreatment with drugs interacting with the α-adrenergic system; for Effect of lower doses of drug on FMRFamide pressor effect: effective at blocking norepinephrine hydrochloride 3 to 15 μg/kg
# [3] = test system: pressor effects of angiotensin II, Arg^8 -vasopressin, norepinephrine hydrochloride; experiment: Effectiveness of the antagonists against their respective pressor agonists; assay type: in vivo, rats; conditions: for Blocking of the pressor effects of norepinephrine hydrochloride: lower doses of drug, norepinephrine hydrochloride 3 to 15 μg/kg
compound,measurement,setting,value
"N[C@@H](Cc1ccccc1)C(=O)O [F-- OH, phenylalanine]","Pressor activity (blood pressure elevation), in words",[1],Neither arginine nor phenylalanine nor phenylalanine-amide were active
same,Maximal increase in blood pressure mm Hg diastolic,[1],0 mm Hg
same,Maximal increase in blood pressure mm Hg systolic,[1],0 mm Hg
"NC(=O)[C@@H](N)Cc1ccccc1 [F--NH2, phenylalanine-amide]","Pressor activity (blood pressure elevation), in words",[1],Neither arginine nor phenylalanine nor phenylalanine-amide were active
same,Maximal increase in blood pressure mm Hg diastolic,[1],0 mm Hg
same,Maximal increase in blood pressure mm Hg systolic,[1],0 mm Hg
CC(COc1ccccc1)N(CCCl)Cc1ccccc1 (stereo not drawn) [Phenoxybenzamine hydrochloride],Effect of drug pretreatment on pressor activity of FMRF-NH2,[2],no effect
"N=C(N)NCCC[C@H](N)C(=O)O [R--OH, arginine]","Pressor activity (blood pressure elevation), in words",[1],Neither arginine nor phenylalanine nor phenylalanine-amide were active
same,Maximal increase in blood pressure mm Hg diastolic,[1],0 mm Hg
same,Maximal increase in blood pressure mm Hg systolic,[1],0 mm Hg
CN1[C@@H]2CC[C@H]1C[C@@H](OC(=O)C(CO)c1ccccc1)C2 (stereo partly drawn) [atropine],Effect of drug pretreatment on pressor activity of FMRF-NH2,[2],did not modify
Clc1cccc(Cl)c1N=C1NCCN1 [clonidine hydrochloride],Attenuation of the FMRFamide pressor effect,[2],30-75%
CN1CCC(=C2c3ccccc3C=Cc3ccccc32)CC1 [cyproheptadine],Effect of drug pretreatment on pressor activity of FMRF-NH2,[2],did not modify
CN1C[C@H](C(=O)N[C@]2(C)O[C@@]3(O)[C@@H]4CCCN4C(=O)[C@H](Cc4ccccc4)N3C2=O)C[C@@H]2c3cccc4[nH]cc(c34)C[C@H]21 [dihydroergotamine mesylate],Attenuation of the FMRFamide pressor effect,[2],30-75%
C[N+](C)(C)CCCCCC[N+](C)(C)C [hexamethonium bromide],Effect of drug pretreatment on pressor activity of FMRF-NH2,[2],not blocked
C=CCN1CC[C@]23c4c5ccc(O)c4O[C@H]2C(=O)CC[C@@]3(O)[C@H]1C5.Cl [nalozone hydrochloride],Effect of drug pretreatment on pressor activity of FMRF-NH2,[2],did not modify
Cc1ccc(N(CC2=NCCN2)c2cccc(O)c2)cc1 [phentolamine hydrochloride],Blocking of the pressor effects of norepinephrine hydrochloride,[3],effective at blocking
same,Attenuation of the FMRFamide pressor effect,[2],30-75%
same,Effect of lower doses of drug on FMRFamide pressor effect,[2],did not affect
CCCO [propanol hydrochloride],Effect of drug pretreatment on pressor activity of FMRF-NH2,[2],not blocked
COC(=O)[C@H]1[C@H]2C[C@@H]3c4[nH]c5cc(OC)ccc5c4CCN3C[C@H]2C[C@@H](OC(=O)c2cc(OC)c(OC)c(OC)c2)[C@@H]1OC [reserpine],Effect of drug pretreatment on pressor activity of FMRF-NH2,[2],did not modify
CNCC(=O)N[C@@H](CCCN=C(N)N)C(=O)N[C@H](C(=O)N[C@@H](Cc1ccc(O)cc1)C(=O)N[C@H](C(=O)N[C@@H](Cc1cnc[nH]1)C(=O)N1CCC[C@H]1C(=O)N[C@@H](C)C(=O)O)C(C)C)C(C)C [saralasin],Antagonism of angiotensin II,[3]; agonist angiotensin II 2 μg/kg,effective antagonists
same,Effect of drug pretreatment on pressor activity of FMRF-NH2,[2],not blocked
c1ccc(CC2=NCCN2)cc1 [tolazoline hydrochloride],Blocking of the pressor effects of norepinephrine hydrochloride,[3],effective at blocking
same,Attenuation of the FMRFamide pressor effect,[2],30-75%
same,Effect of lower doses of drug on FMRFamide pressor effect,[2],did not affect
"(1-(β-mercapto-β,β-cyclopentamethylene propionic acid), 2-(0-methyl)tyrosine)Arg^8 -Vasopressin",Antagonism of Arg^8 -vasopressin,[3]; agonist Arg^8 -vasopressin 1 μg/kg,effective antagonists
same,Effect of drug pretreatment on pressor activity of FMRF-NH2,[2],not blocked
gamma 1-melanotropic stimulating hormone [q MSH],Duration of blood pressure effect,[1],+++
same,"Pressor activity (blood pressure elevation), in words",[1],exhibits pressor activity
same,Maximal increase in blood pressure mm Hg diastolic,[1],70 mm Hg
same,Maximal increase in blood pressure mm Hg systolic,[1],90 mm Hg
nitroprusside,Effect of drug pretreatment on pressor activity of FMRF-NH2,[2],did not modify
